Patent publication US9790169B2, “IDO inhibitors” (BRISTOL-MYERS SQUIBB COMPANY, priority 2015, dated 2017)
Counter-ions that a name gives are not always drawn.

molecular target: human IDO1 (Homo sapiens, UniProt P14902); experiment: Assessment of human IDO-1 inhibitory activity in HEK cells (human IDO1/HEK293 cells, kynurenine read-out with Ehrlich reagent, absorbance 490 nm); format: cell-based; set-up: expressed in transfected cells; conditions: HEK Human IDO-1 cellular assay
Description: Exemplary compounds were tested for inhibition of IDO activity.
Assessment of Human IDO-1 Inhibitory Activity in HEK Cells
HEK293 cells were transfected with a pCDNA-based mammalian expression vector harboring human IDO1 cDNA (NM 002164.2) by electroporation. They were cultured in medium (DMEM with 10% FBS) containing 1 mg/ml G418 for two weeks. Clones of HEK293 cells that stably expressed human IDO1 protein were selected and expanded for IDO inhibition assay.
The human IDO1/HEK293 cells were seeded at 10,000 cells per 50 μL per well with RPMI/phenol red free media contains 10% FBS in a 384-well black wall clear bottom tissue culture plate (Matrix Technologies LLC) 100 nL of certain concentration of compound was then added to each well using ECHO liquid handling systems. The cells were incubated for 20 hours in 37° C. incubator with 5% CO2.
The compound treatments were stopped by adding trichloroacetic acid (Sigma-Aldrich) to a final concentration at 0.2%. The cell plate was further incubated at 50° C. for 30 minute. The equal volume supernatant (20 μL) and 0.2% (w/v) Ehrlich reagent (4-dimethylaminobenzaldehyde, Sigma-Aldrich) in glacial acetic acid were mixed in a new clear bottom 384-well plate. This plate was then incubated at room temperature for 30 minute. The absorbance at 490 nm was measured on Envision plate reader.
Compound IC50 values were calculated using the counts of 500 nM of a reference standard treatment as one hundred percent inhibition, and counts of no compound but DMSO treatment as zero percent inhibition.

Sequence of human IDO1 (P14902 whole entry): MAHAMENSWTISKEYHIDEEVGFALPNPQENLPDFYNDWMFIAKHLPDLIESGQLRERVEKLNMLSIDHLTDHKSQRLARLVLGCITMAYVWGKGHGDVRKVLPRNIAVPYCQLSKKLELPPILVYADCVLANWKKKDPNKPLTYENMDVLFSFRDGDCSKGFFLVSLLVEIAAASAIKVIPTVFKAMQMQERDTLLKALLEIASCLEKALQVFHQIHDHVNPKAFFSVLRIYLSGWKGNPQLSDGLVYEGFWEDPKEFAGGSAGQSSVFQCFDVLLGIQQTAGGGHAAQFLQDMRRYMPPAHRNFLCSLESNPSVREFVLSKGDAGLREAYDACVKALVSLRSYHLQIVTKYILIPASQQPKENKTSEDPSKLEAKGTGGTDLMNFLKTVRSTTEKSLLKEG

Row | Molecule | IC50
1 | CCC(CC(=O)O)c1ccc(N(CC(C)C)CC(C)(C)O)c(Nc2ccc3nc(C)sc3c2)c1 (racemic) [Example 452, 3-(4-((2-Hydroxy-2-methylpropyl)(isobutyl)amino)-3-((2-methylbenzo[d]thiazol-6-yl)amino)phenyl)pentanoic acid] | > 50 nM
2 | CCC(CC(=O)O)c1ccc(N(CC(C)C)CC(C)(C)O)c(Nc2ccc(Cl)cc2)c1 (racemic) [Example 453, 3-(3-((4-chlorophenyl)amino)-4-((2-hydroxy-2-methyl-propyl)(isobutyl)amino)phenyl) pentanoic acid] | < 5 nM
3 | CCCN(c1ccc(C(CC)CC(=O)O)cc1NC(=O)Nc1ccc(OC)cc1F)C1CCOCC1 (racemic) [Example 609, 3-(3-(3-(2-Fluoro-4-methoxyphenyl)ureido)-4-(propyl(tetrahydro-2H-pyran-4-yl)amino)phenyl)pentanoic acid] | < 5 nM
4 | CCCN(c1ccc(C(CC)CC(=O)O)cc1NC(=O)Nc1cnc(C)nc1)C1CCOCC1 (racemic) [Example 610, 3-(3-(3-(2-methylpyrimidin-5-yl)ureido)-4-(propyl(tetrahydro-2H-pyran-4-yl)amino)phenyl)pentanoic acid] | > 50 nM
5 | CCC(CC(=O)O)c1cc(NC(=O)Nc2ccc(C)cc2)c(N(CC(C)C)C2CCCCC2)cc1F (racemic) [Example 951, (+/−)-3-(4-(Cyclohexyl(isobutyl)amino)-2-fluoro-5-(3-(p-tolyl)ureido)phenyl)pentanoic acid] | < 5 nM
6 | CCOc1ccc(NC(=O)Nc2cc(C(CC)CC(=O)O)c(F)cc2N(CC(C)C)C2CCCCC2)cc1 (racemic) [Example 952, (+/−)-3-(4-(Cyclohexyl(isobutyl)amino)-5-(3-(4-ethoxyphenyl)ureido)-2-fluorophenyl)pentanoic acid] | < 5 nM
7 | CCCCc1ccc(NC(=O)Nc2cc(C(CC)CC(=O)O)cc(F)c2N(CC(C)C)CC(C)C)cc1 (racemic) [Example 973, (+/−)-3-(3-(3-(4-butylphenyl)ureido)-4-(diisobutylamino)-5-fluorophenyl)pentanoic acid] | < 50 nM
8 | CCC(CC(=O)O)c1cc(F)c(N(CC(C)C)CC(C)C)c(NC(=O)Nc2ccc(C#N)c(Cl)c2)c1 (racemic) [Example 978, (+/−)-3-(3-(3-(3-chloro-4-cyanophenyl)ureido)-4-(diisobutylamino)-5-fluorophenyl)pentanoic acid] | < 50 nM
9 | COCC(CC(=O)O)c1ccc(N(CC(C)C)C2CCCCC2)c(NC(=O)Nc2ccccc2F)c1 (racemic) [Example 983, (+/−)-3-(4-(Cyclohexyl(isobutyl)amino)-3-(3-(2-fluorophenyl)ureido)phenyl)-4-methoxybutanoic acid] | < 5 nM
10 | COCC(CC(=O)O)c1ccc(N(CC(C)C)C2CCCCC2)c(NC(=O)Nc2ccc(Cl)cc2F)c1 (racemic) [Example 984, (+/−)-3-(3-(3-(4-Chloro-2-fluorophenyl)ureido)-4-(cyclohexyl(isobutyl)amino)phenyl)-4-methoxybutanoic acid] | < 5 nM
11 | COCC(CC(=O)O)c1ccc(N(CC(C)C)C2CCCCC2)c(NC(=O)Nc2cc(C)on2)c1 (racemic) [Example 986, (+/−)-3-(4-(Cyclohexyl(isobutyl)amino)-3-(3-(5-methylisoxazol-3-yl)ureido)phenyl)-4-methoxybutanoic acid] | < 50 nM
12 | COCC(CC(=O)O)c1ccc(N(CC(C)C)C2CCCCC2)c(NC(=O)Nc2cncnc2)c1 (racemic) [Example 990, (+/−)-3-(4-(Cyclohexyl(isobutyl)amino)-3-(3-(pyrimidin-5-yl)ureido)phenyl)-4-methoxybutanoic acid] | < 50 nM
13 | CC(C)CN(CC(C)C)c1ccc(C(CC(=O)O)CN(C)C)cc1NC(=O)Nc1cncnc1 (racemic) [Example 1001, (+/−)-3-(4-(Disobutylamino)-3-(3-(pyrimidin-5-yl)ureido)phenyl)-4-(dimethylamino)butanoic acid] | > 50 nM
14 | CC(C)CN(c1ccc(C(COCC2CC2(F)F)CC(=O)O)cc1NC(=O)Nc1ccc(Cl)cc1F)C1CCCCC1 (racemic) [Example 1002, (+/−)-3-(3-(3-(4-Chloro-2-fluorophenyl)ureido)-4-(cyclohexyl(isobutyl)amino)phenyl)-4-((2,2-difluorocyclopropyl)methoxy)butanoic acid] | < 50 nM

Further lines, results first:

Row | IC50 | Molecule
15 | < 5 nM | 3-(4-(isobutyl(tetrahydro-2H-pyran-4-yl)amino)-3-(3-(4-phenoxyphenyl)ureido)phenyl)butanoic acid [Example 959]
16 | > 50 nM | 3-(4-(isobutyl(tetrahydro-2H-pyran-4-yl)amino)-3-(3-(4-phenoxyphenyl)ureido)phenyl)butanoic acid [Example 962]
17 | < 5 nM | CCC(CC(=O)O)c1ccc(N(CC)C2CCOCC2)c(NC(=O)Nc2ccc(OC)cc2F)c1 (racemic) [Example 608, 3-(4-(Ethyl(tetrahydro-2H-pyran-4-yl)amino)-3-(3-(2-fluoro-4-methoxyphenyl)ureido)phenyl)pentanoic acid]
18 | < 50 nM | CCCN(c1ccc(C(CC)CC(=O)O)cc1Nc1ncc(CC)cn1)C1CCOCC1 (racemic) [Example 611, 3-(3-((5-Ethylpyrimidin-2-yl)amino)-4-(propyl(tetrahydro-2H-pyran-4-yl)amino)phenyl)pentanoic acid]
19 | < 5 nM | CCC(CC(=O)O)c1ccc(N(CC(C)C)CC(C)C)c(NC(=O)Cc2ccc(C)cc2)c1 (racemic) [Example 949, (+/−)-3-(4-(Diisobutylamino)-3-(2-(p-tolyl)acetamido)phenyl)pentanoic acid]
20 | < 5 nM | CCC(CC(=O)O)c1ccc(N(CC(C)C)CC(C)C)c(NC(=O)Cc2ccc(C#N)cc2)c1 (racemic) [Example 950, (+/−)-3-(3-(2-(4-Cyanophenyl)acetamido)-4-(diisobutylamino)phenyl)pentanoic acid]
21 | < 5 nM | Cc1ccc(NC(=O)Nc2cc(C(C)CC(=O)O)c(F)cc2N(CC(C)C)C2CCCCC2)cc1 (racemic) [Example 955, (+/−)-3-(4-(Cyclohexyl(isobutyl)amino)-2-fluoro-5-(3-(p-tolyl)ureido)phenyl)butanoic acid]
22 | > 50 nM | CCC(CC(=O)O)c1cc(F)c(N(CC(C)C)CC(C)C)c(NC(=O)Nc2cc(C(C)(C)C)on2)c1 (racemic) [Example 971, (+/−)-3-(3-(3-(5-(tert-Butyl)isoxazol-3-yl)ureido)-4-(diisobutylamino)-5-fluorophenyl)pentanoic acid, TFA]
23 | < 50 nM | CCC(CC(=O)O)c1cc(F)c(N(CC(C)C)CC(C)C)c(NC(=O)Nc2ccc(C)c(F)c2)c1 (racemic) [Example 974, (+/−)-3-(4-(diisobutylamino)-3-fluoro-5-(3-(3-fluoro-4-methylphenyl)ureido)phenyl)pentanoic acid]
24 | < 50 nM | CCC(CC(=O)O)c1cc(F)c(N(CC(C)C)CC(C)C)c(NC(=O)Nc2ccccc2Cl)c1 (racemic) [Example 975, (+/−)-3-(3-(3-(2-chlorophenyl)ureido)-4-(diisobutylamino)-5-fluorophenyl)pentanoic acid]
25 | < 50 nM | CCC(CC(=O)O)c1cc(F)c(N(CC(C)C)CC(C)C)c(NC(=O)Nc2cc(C(F)(F)F)ccc2F)c1 (racemic) [Example 976, (+/−)-3-(4-(diisobutylamino)-3-fluoro-5-(3-(2-fluoro-5-(trifluoromethyl)phenyl)ureido)phenyl)pentanoic acid]
26 | < 5 nM | COCC(CC(=O)O)c1ccc(N(CC(C)C)C2CCCCC2)c(NC(=O)Nc2ccc(C)cc2)c1 (racemic) [Example 988, (+/−)-3-(4-(Cyclohexyl(isobutyl)amino)-3-(3-(p-tolyl)ureido)phenyl)-4-methoxybutanoic acid]
27 | < 50 nM | COCC(CC(=O)O)c1ccc(N(CC(C)C)CC(C)C)c(NC(=O)Nc2ccc(C)cc2)c1 (racemic) [Example 992, (+/−)-3-(4-(Diisobutylamino)-3-(3-(p-tolyl)ureido)phenyl)-4-methoxybutanoic acid]
28 | < 5 nM | COCC(CC(=O)O)c1ccc(N(CC(C)C)CC(C)C)c(NC(=O)Nc2ccc(Cl)cc2F)c1 (racemic) [Example 994, (+/−)-3-(3-(3-(4-Chloro-2-fluorophenyl)ureido)-4-(diisobutylamino)phenyl)-4-methoxybutanoic acid]
29 | > 50 nM | COCC(CC(=O)O)c1ccc(N(CC(C)C)CC(C)C)c(NC(=O)Nc2cncnc2)c1 (racemic) [Example 996, (+/−)-3-(4-(Diisobutylamino)-3-(3-(pyrimidin-5-yl)ureido)phenyl)-4-methoxybutanoic acid]
30 | < 50 nM | COCC(CC(=O)O)c1ccc(N(CC(C)C)CC(C)C)c(NC(=O)Nc2cc(C)on2)c1 (racemic) [Example 998, (+/−)-3-(4-(Diisobutylamino)-3-(3-(5-methylisoxazol-3-yl)ureido)phenyl)-4-methoxybutanoic acid]
31 | > 50 nM | CC(C)CN(CC(C)C)c1ccc(C(CC(=O)O)CN(C)C)cc1NC(=O)Nc1ccc(Cl)cc1F (racemic) [Example 1000, (+/−)-3-(3-(3-(4-Chloro-2-fluorophenyl)ureido)-4-(diisobutylamino)phenyl)-4-(dimethylamino)butanoic acid]
